Assay results taken from PMC6792350 (Environmental Health Perspectives, 2019).

Key:
[1] = Cumulative urinary excretion after IV and oral dosing in piglets; settings: for fraction of parent dose recovered in urine as glucuronide, mean±SD / fraction of parent dose recovered in urine as glucuronide, range: by 24 h
Protocol: Blood samples were collected in heparinized polypropylene tubes, immediately chilled in ice and centrifuged for 10 min at 3,000×g at 4°C, and the supernatant plasma was stored in polypropylene tubes at −20°C until assay. Total urine was filtered through a nylon mesh ( 250μm ) and collected in glass containers and chilled in ice. The volume of each urine sample and the sampling time were recorded. A urine sample was immediately chilled in ice and centrifuged for 10 min at 3,000×g at 4°C and stored at −20°C until assayed.
Analytes were quantified by Acquity UPLC-MS/MS (Waters Corporation).
All TK analyses were performed using the Phoenix® NLME (version 8.0; Pharsight Corporation). The plasma mass concentrations were converted into molar concentrations before analysis.

[2] = Noncompartmental toxicokinetic analysis of plasma after IV dosing in piglets; settings: for time after which plasma concentrations were below the LOQ: after IV BPA and BPS administration; for time of maximal plasma glucuronide concentration: after IV BPA and BPS dosing; for Cmax/dose / AUC0-tlast/dose / Tmax: plasma, mean±SD; for Cmax/dose: IV BPA 21.9 or 20 μmol/kg (n=15) or IV BPS 20 μmol/kg (n=16), glucuronides after parent dosing; for AUC0-tlast/dose: IV BPA or BPS dosing; for Tmax: glucuronide after IV BPA or BPS dosing
Protocol: Table 1 summarizes the protocol of the experiments and the plasma and urine datasets further considered for TK analyses. A first experiment (Exp. 1) was performed in 8 male piglets age 42 d ( 20.8±1.6kg BW) to investigate oral BPA TK. […] BPA data obtained after IV BPA administrations had already been used to evaluate human BPA clearance using an allometric approach ([Collet et al. 2015]).
For the IV administrations, BPA powder was dissolved in ethanol–propylene glycol (1:49, vol:vol) at 50mg/mL (Exp.1 and 2) and in ethanol–saline (1:2, vol:vol) at 23mg/mL (Exp. 5).
During the first 24 h of sampling, the piglets were housed individually in stainless steel cages.
(§1) The plasma analytes concentration–time data from individual piglets were used to derive the maximum concentration (Cmax), and the time to maximum concentration (Tmax). The area under the plasma concentration–time curves from dosing time to the time of the last measurable concentration ( AUC0–tlast ) were calculated using the linear trapezoidal rule (Equation 1). (1) AUC0–tlast=∑0tlast(Ci−1+Ci/2)×(ti−ti−1) where Ci is the concentration obtained at the time i ( ti ).
(§2) The area under the plasma concentration time curve from t=0 to infinity ( AUC0–inf ) was obtained using Equation 2. (2) AUC0–inf=AUC0–tlast+AUCtlast–inf where AUCtlast–inf is the area extrapolated from the last observation to infinity, calculated according to Equation 3: (3) AUCtlast–inf=Clast/λz where Clast is the last observed quantifiable plasma concentration, and λz is the slope of the terminal phase, as estimated by linear regression using the best fit option of Phoenix®.

[3] = Noncompartmental toxicokinetic analysis of plasma after oral (gavage) dosing in piglets; settings: plasma, mean±SD; for Cmax/dose: oral BPA 438 or 200 μmol/kg (n=12) or oral BPS 40 or 200 μmol/kg (n=10); for AUClast/dose / Tmax: oral BPA or BPS dosing
Protocol: Table 1 summarizes the protocol of the experiments and the plasma and urine datasets further considered for TK analyses.
For administrations by gavage, BPA powder was dissolved in ethanol–corn oil (1:9, vol:vol) at 100mg/mL (Exp. 1).
as §1, §2

[4] = Population semiphysiologically based 9-compartment TK model (NLME) of plasma and urine data in piglets; settings: for tvK25, rate constant liver to plasma for the glucuronide, Mean / tvK50, glucuronide elimination rate constant from plasma to urine, Mean / tvK56, distribution rate constant, Mean / tvK65, distribution rate constant, Mean / tvK105, rate constant of glucuronide formed by enterocytes absorbed into the systemic circulation, Mean / tvV, volume of the central compartment, Mean: bootstrap mean; for tvK25, rate constant liver to plasma for the glucuronide, Median / tvK50, glucuronide elimination rate constant from plasma to urine, Median / tvK56, distribution rate constant, Median / tvK65, distribution rate constant, Median / tvK105, rate constant of glucuronide formed by enterocytes absorbed into the systemic circulation, Median / tvV, volume of the central compartment, Median: bootstrap median; for mean volume of the central compartment: pig, in vivo; for tvV, volume of the central compartment, Mean / tvV, volume of the central compartment, Median: population primary parameter
Protocol: The NLME model was therefore developed by combining the plasma and urinary data sets from the five TK experiments carried out in piglets, except for the urinary BPA concentration obtained after oral administration of BPA.
Different compartmental models and submodels were tested and compared using the likelihood ratio test (LRT). The primary parameters of the model, namely the volumes of distribution ( VBPA , VBPAG , VBPS , VBPSG ) and the first-order rate constants ( Kij ) and their associated precisions [standard error (SE)] were estimated by minimizing an objective function value (OFV) expressed as minus twice the log of the likelihood estimation ( −2LL ).
The between-subject variability (BSV) of the parameters was evaluated using the exponential model θparameter_i=θtv_parameter×exp(ηi) , where θparameter_i is the parameter estimated for the i^th individual, θtv_parameter is the typical population value of the parameter, and ηi is the deviation associated with the i^th individual from the corresponding value of the parameter at the population level. The distribution of ηi was assumed to be normal with a mean of 0 and a variance ω² . The BSV was reported as a coefficient of variation (CV) in the original scale CV(%)=100× exp (ω^2)−1 .
The residual variance was modeled using a combined additive and proportional error model Cobsij=Cpredij(1+ε1ij)+ε2ij where Cobsij and Cpredij are respectively the j^th observed and predicted concentrations for the i^th individual and ε1ij and ε2ij the multiplicative and additive residual errors.
The bootstrap tool (20 replicates) was used to evaluate the mean, median, SE, and coefficient of variation of the parameter estimates. The predictive ability of the model was checked graphically by plotting Visual Predictive Check plots to compare the observed data with the selected quantiles (here 20th, 50th and 80th percentiles) of data simulated using the model and obtained from 200–1,000 replicates from each animal based on the structure of the original data (i.e., dosing, timing and number of samples).
For the LRT test, the critical value of the χ^2 distribution considered for a given nominal risk and a given number of degrees of freedom was obtained using the Excel function CHISQ.INV.RT().
Figure 1. Schematic representation of the compartmental model. […] The link between the two central compartments was modeled with a compartment (CP2) that should be viewed as the liver. […] The fraction of absorbed BPA that is not hepatically transformed reaches the CP3 via K23 . The exchanges between CP2 and CP3 are bilateral, K32 being the rate constant between CP3 and CP2 and K23 the rate constant between CP2 and CP3. […] It was assumed that no phase-two metabolite other than BPAG (BPSG) was formed.
(12) Bioavailability=K12/K12+K110+K10×(1−K25/K25+K23) with K10 , K12 , K110 , K23; K25 as defined above.

[5] = IV BPA (n=7) or IV BPS (n=16) dosing
[6] = oral BPA (n=4) or oral BPS (n=10) dosing

Row | Compound | time after which plasma concentrations were below the LOQ [2] [h] | time of maximal plasma glucuronide concentration [2] | Cmax/dose [2] [μmol/L per μmol/kg BW] | AUC0-tlast/dose [2] [μmol×h/L per μmol/kg] | Tmax [2] [min] | Cmax/dose [3] [μmol/L per μmol/kg BW] | AUClast/dose [3] [μmol×h/L per μmol/kg BW] | Tmax [3] [min] | fraction of parent dose recovered in urine as glucuronide, mean±SD [1, 5] [%] | fraction of parent dose recovered in urine as glucuronide, range ([1]; IV BPA or BPS dosing) | fraction of parent dose recovered in urine as glucuronide, mean±SD [1, 6] [%] | fraction of parent dose recovered in urine as glucuronide, range ([1]; oral BPA or BPS dosing) | tvK25, rate constant liver to plasma for the glucuronide, Mean [4] [h⁻¹] | tvK50, glucuronide elimination rate constant from plasma to urine, Mean [4] [h⁻¹] | tvK56, distribution rate constant, Mean [4] [h⁻¹] | tvK65, distribution rate constant, Mean [4] [h⁻¹] | tvK105, rate constant of glucuronide formed by enterocytes absorbed into the systemic circulation, Mean [4] [h⁻¹] | tvK25, rate constant liver to plasma for the glucuronide, Median [4] [h⁻¹] | tvK50, glucuronide elimination rate constant from plasma to urine, Median [4] [h⁻¹] | tvK56, distribution rate constant, Median [4] [h⁻¹] | further results
1 | O=S(=O)(c1ccc(O)cc1)c1ccc(O)cc1 [BPS, bisphenol S] | – | – | – | – | – | – | – | – | – | – | – | – | – | – | – | – | – | – | – | – | part of the dose eliminated in urine ([1]; 3 h after dosing): About half; unconjugated compound in urine, fraction of IV dose ([1]; IV BPA and BPS doses): 0.027±0.0084%
2 | CC(C)(c1ccc(O)cc1)c1ccc(O[C@@H]2O[C@H](C(=O)O)[C@@H](O)[C@H](O)[C@H]2O)cc1 [BPAG, Bisphenol A glucuronide] | 12 to 24 | about 20 min | 1.80±0.85 | 2.04±0.58 | 21 ± 20.4 | 0.58±0.34 | 1.75±0.73 | 74.4 ± 64.2 | 97.0±27.6 | 63.1–135.7% | 62.2±15.8 | 49.5–80.2% | 137.08 | 2.750 | 1.45 | 0.015 | 0.207 | 91.87 | 2.547 | 1.45 | tvK65, distribution rate constant, Median [4]: 0.015 h⁻¹; tvK105, rate constant of glucuronide formed by enterocytes absorbed into the systemic circulation, Median [4]: 0.217 h⁻¹; mean volume of the central compartment [4]: 0.11 L/kg; tvV, volume of the central compartment, Mean [4]: 0.107 L/kg; tvV, volume of the central compartment, Median [4]: 0.112 L/kg
3 | O=C([O-])[C@H]1O[C@@H](Oc2ccc(S(=O)(=O)c3ccc(O)cc3)cc2)[C@H](O)[C@@H](O)[C@@H]1O.[Na+] [BPSG, Bis(4-hydroxyphenyl) Sulfone O-β-D-Glucuronide-Sodium Salt] | 8 to 12 | about 20 min | 2.55±0.58 | 2.59±0.77 | 17.4 ± 11.4 | 2.94±4.78 | 2.87±0.99 | 43.8 ± 18 | 76.8±20.1 | 36.3–107.9% | 86.5±23.9 | 65.5–126.8% | 66.6 | 1.818 | 0.730 | 0.006 | 0.534 | 62.147 | 1.832 | 0.655 | fraction of the IV BPSG dose recovered in urine, range ([1]; 24 h post dosing, IV BPSG): 40.1–69.8%; mean fraction of the IV BPSG dose recovered in urine ([1]; 24 h post dosing, IV BPSG): 59.0±9.96%; tvK65, distribution rate constant, Median [4]: 0.006 h⁻¹; tvK105, rate constant of glucuronide formed by enterocytes absorbed into the systemic circulation, Median [4]: 0.523 h⁻¹; mean volume of the central compartment [4]: 0.14 L/kg; tvV, volume of the central compartment, Mean [4]: 0.135 L/kg; tvV, volume of the central compartment, Median [4]: 0.137 L/kg
